20 molecules from ChEMBL document CHEMBL3044937, “Design, synthesis and acaricidal activity of novel strobilurin derivatives containing pyrimidine moieties” (2010) can be followed below.

Holding throughout (assay type): functional
Assay [1] deals with Tetranychus cinnabarinus. Put plainly: Acaricidal activity against Tetranychus cinnabarinus (carmine spider mite) infected kidney bean leaf assessed as mortality at 40 mg/l measured after 48 hr in greenhouse conditions relative to control.
In assay [2] the test system is Tetranychus cinnabarinus. Put plainly: Acaricidal activity against Tetranychus cinnabarinus (carmine spider mite) infected kidney bean leaf assessed as mortality at 10 mg/l measured after 48 hr in greenhouse conditions relative to control.
Assay [3] relates to Tetranychus cinnabarinus. Put plainly: Acaricidal activity against Tetranychus cinnabarinus (carmine spider mite) infected kidney bean leaf assessed as mortality at 600 mg/l measured after 48 hr in greenhouse conditions relative to control.
The subject of assay [4] is Tetranychus cinnabarinus. In words: Acaricidal activity against Tetranychus cinnabarinus (carmine spider mite) infected kidney bean plant assessed as mortality at 50 g a.i./ha measured after 7 days in field conditions relative to control. The following applies: 168 h.
Assay [5] deals with Tetranychus cinnabarinus. Put plainly: Acaricidal activity against Tetranychus cinnabarinus (carmine spider mite) infected kidney bean plant assessed as mortality at 100 g a.i./ha measured after 21 days in field conditions relative to control. The following applies: 504 h.
In assay [6] the test system is Tetranychus cinnabarinus. Put plainly: Acaricidal activity against Tetranychus cinnabarinus (carmine spider mite) infected kidney bean plant assessed as mortality at 100 g a.i./ha measured after 14 days in field conditions relative to control. The conditions noted are these: 336 h.
For assay [7], the system named is Tetranychus cinnabarinus. Put plainly: Acaricidal activity against Tetranychus cinnabarinus (carmine spider mite) infected kidney bean plant assessed as mortality at 50 g a.i./ha measured after 21 days in field conditions relative to control. The following applies: 504 h.
Assay [8] deals with Tetranychus cinnabarinus. Put plainly: Acaricidal activity against Tetranychus cinnabarinus (carmine spider mite) infected kidney bean plant assessed as mortality at 100 g a.i./ha measured after 7 days in field conditions relative to control. The following applies: 168 h.
Assay [9] concerns Tetranychus cinnabarinus. In words: Acaricidal activity against Tetranychus cinnabarinus (carmine spider mite) infected kidney bean plant assessed as mortality at 50 g a.i./ha measured after 14 days in field conditions relative to control. The conditions noted are these: 336 h.
For assay [10], the system named is Tetranychus cinnabarinus. In words: Acaricidal activity against Tetranychus cinnabarinus (carmine spider mite) infected kidney bean plant assessed as mortality at 50 g a.i./ha measured after 3 days in field conditions relative to control. The following applies: 72 h.
For assay [11], the system named is Tetranychus cinnabarinus. In words: Acaricidal activity against Tetranychus cinnabarinus (carmine spider mite) infected kidney bean plant assessed as mortality at 100 g a.i./ha measured after 3 days in field conditions relative to control. The following applies: 72 h.
Assay [12] concerns Tetranychus cinnabarinus. Put plainly: Acaricidal activity against Tetranychus cinnabarinus (carmine spider mite) infected kidney bean plant assessed as mortality at 200 g a.i./ha measured after 3 days in field conditions relative to control. The following applies: 72 h.
Assay [13] has as its system Tetranychus cinnabarinus. Put plainly: Acaricidal activity against Tetranychus cinnabarinus (carmine spider mite) infected kidney bean plant assessed as mortality at 200 g a.i./ha measured after 21 days in field conditions relative to control. The following applies: 504 h.
The test system of assay [14] is Tetranychus cinnabarinus. In words: Acaricidal activity against Tetranychus cinnabarinus (carmine spider mite) infected kidney bean plant assessed as mortality at 200 g a.i./ha measured after 7 days in field conditions relative to control. The conditions noted are these: 168 h.
Assay [15] deals with Tetranychus cinnabarinus. Put plainly: Acaricidal activity against Tetranychus cinnabarinus (carmine spider mite) infected kidney bean plant assessed as mortality at 200 g a.i./ha measured after 14 days in field conditions relative to control. The conditions noted are these: 336 h.

By mortality is commonly meant the percentage killed. Turning to `CO/C=C(/C(=O)OC)c1ccccc1COc1cc(C(F)(F)F)nc(NC2CC2)n1`, the mortality at 40 µg/mL in the assay on Tetranychus cinnabarinus [1] was found to be 0%. In addition, the mortality at 10 µg/mL in the assay with Tetranychus cinnabarinus [2] turned out to be 0%.

Regarding `CNc1nc(OCc2ccccc2/C(=C\OC)C(=O)OC)cc(C(F)(F)F)n1`, the mortality at 40 µg/mL in the assay with Tetranychus cinnabarinus [1] worked out at 0%. The mortality at 10 µg/mL in the assay on Tetranychus cinnabarinus [2] was determined as 0%.

For the molecule `CO/C=C(/C(=O)OC)c1ccccc1COc1cc(C(F)(F)F)nc(NCc2ccccc2Cl)n1`, the mortality at 40 µg/mL in the assay on Tetranychus cinnabarinus [1] was 81%. Also, in the assay on Tetranychus cinnabarinus [2], the mortality at 10 µg/mL worked out at 32%.

On to `CO/C=C(/C(=O)OC)c1ccccc1COc1nc(Nc2ccccc2)nc(C)c1C`, for which the mortality at 40 µg/mL in the assay on Tetranychus cinnabarinus [1] stood at 0%. Moreover, in the assay on Tetranychus cinnabarinus [2], the mortality at 10 µg/mL worked out at 0%. Also, the mortality at 600 µg/mL in the assay with Tetranychus cinnabarinus [3] was 0%.

In the case of `CO/C=C(/C(=O)OC)c1ccccc1COc1cc(C(F)(F)F)nc(NC(C)C)n1`, in the assay on Tetranychus cinnabarinus [1], the mortality at 40 µg/mL was determined as 95%. The mortality at 10 µg/mL in the assay on Tetranychus cinnabarinus [2] amounted to 64%.

For the molecule `COC(=O)N(OC)c1ccccc1COc1cc(C(F)(F)F)nc(Nc2ccccc2)n1`, the mortality at 40 µg/mL in the assay with Tetranychus cinnabarinus [1] came to 0%. The mortality at 10 µg/mL in the assay with Tetranychus cinnabarinus [2] turned out to be 0%. For the same molecule, in the assay on Tetranychus cinnabarinus [3], the mortality at 600 µg/mL was determined as 0%.

For the molecule `CO/C=C(/C(=O)OC)c1ccccc1COc1cc(C(F)(F)F)nc(N(C)C)n1`, the mortality at 40 µg/mL with Tetranychus cinnabarinus [1] was 0%. Moreover, in the assay on Tetranychus cinnabarinus [2], the mortality at 10 µg/mL was 0%.

As to `CO/C=C(/C(=O)OC)c1ccccc1COc1cc(C)nc(Nc2ccccc2)n1`, the mortality at 40 µg/mL with Tetranychus cinnabarinus [1] is 0%. In the assay with Tetranychus cinnabarinus [2], the mortality at 10 µg/mL came to 0%. Moreover, the mortality at 600 µg/mL with Tetranychus cinnabarinus [3] was 90%.

Turning to `CO/C=C(/C(=O)OC)c1ccccc1COc1cc(C(F)(F)F)nc(NCc2ccccc2)n1`, the mortality at 40 µg/mL in the assay with Tetranychus cinnabarinus [1] was found to be 65%. Also, in the assay on Tetranychus cinnabarinus [2], the mortality at 10 µg/mL is 28%.

On to `CO/C=C(/C(=O)OC)c1ccccc1COc1cc(C2CC2)nc(Nc2ccccc2)n1`, for which the mortality at 40 µg/mL in the assay on Tetranychus cinnabarinus [1] was 0%. Besides, in the assay on Tetranychus cinnabarinus [2], the mortality at 10 µg/mL came to 0%. The mortality at 600 µg/mL in the assay on Tetranychus cinnabarinus [3] is 90%.

For the molecule `CCN(CC)c1nc(OCc2ccccc2/C(=C\OC)C(=O)OC)cc(C(F)(F)F)n1`, the mortality at 40 µg/mL in the assay with Tetranychus cinnabarinus [1] worked out at 65%. In addition, the mortality at 10 µg/mL with Tetranychus cinnabarinus [2] came out at 21%.

Turning to `CO/C=C(/C(=O)OC)c1ccccc1COc1cc(C(F)(F)F)nc(N2CCOCC2)n1`, the mortality at 40 µg/mL in the assay on Tetranychus cinnabarinus [1] amounted to 70%. The mortality at 10 µg/mL in the assay with Tetranychus cinnabarinus [2] turned out to be 0%.

Consider `CO/C=C(/C(=O)OC)c1ccccc1COc1cc(C(F)(F)F)nc(OC(C)C)n1`, for which the mortality at 50 g/ha turned out to be 77.6% in the assay on Tetranychus cinnabarinus [4], 98.2% in the assay on Tetranychus cinnabarinus [7], 93.2% in the assay on Tetranychus cinnabarinus [9] and 100% in the assay with Tetranychus cinnabarinus [10]. Besides, the mortality at 100 g/ha in the assay on Tetranychus cinnabarinus [5] turned out to be 97.9%; in the assay on Tetranychus cinnabarinus [6], 90.4%; in the assay on Tetranychus cinnabarinus [8] it was 88%; in the assay on Tetranychus cinnabarinus [11], 100%. For the same molecule, the mortality at 40 µg/mL with Tetranychus cinnabarinus [1] came to 100%. Also, the mortality at 10 µg/mL in the assay on Tetranychus cinnabarinus [2] was 95%. Also, in the assay on Tetranychus cinnabarinus [3], the mortality at 600 µg/mL amounted to 100%.

In the case of `CNC(=O)/C(=N/OC)c1ccccc1COc1cc(C(F)(F)F)nc(Nc2ccccc2)n1`, in the assay on Tetranychus cinnabarinus [1], the mortality at 40 µg/mL was found to be 0%. In the assay on Tetranychus cinnabarinus [2], the mortality at 10 µg/mL was 0%. Besides, the mortality at 600 µg/mL in the assay on Tetranychus cinnabarinus [3] was determined as 0%.

Turning to `CNC(=O)N(OC)c1ccccc1COc1cc(C(F)(F)F)nc(Nc2ccccc2)n1`, the mortality at 40 µg/mL with Tetranychus cinnabarinus [1] came out at 0%. The mortality at 10 µg/mL in the assay on Tetranychus cinnabarinus [2] was found to be 0%. Moreover, the mortality at 600 µg/mL in the assay on Tetranychus cinnabarinus [3] amounted to 0%.

Consider `CO/N=C(/C(=O)OC)c1ccccc1COc1cc(C(F)(F)F)nc(Nc2ccccc2)n1`, for which, in the assay with Tetranychus cinnabarinus [1], the mortality at 40 µg/mL came to 0%. The mortality at 10 µg/mL in the assay with Tetranychus cinnabarinus [2] was found to be 0%. Further, in the assay on Tetranychus cinnabarinus [3], the mortality at 600 µg/mL came out at 100%.

`CCNc1nc(OCc2ccccc2/C(=C\OC)C(=O)OC)cc(C(F)(F)F)n1`: in the assay on Tetranychus cinnabarinus [1], the mortality at 40 µg/mL was 0%. For the same molecule, the mortality at 10 µg/mL in the assay with Tetranychus cinnabarinus [2] was 0%.

Take `CO/C=C(/C(=O)OC)c1ccccc1COc1cc(C(F)(F)F)nc(Nc2ccccc2)n1`: the mortality at 50 g/ha in the assay on Tetranychus cinnabarinus [4] amounted to 65.3%; with Tetranychus cinnabarinus [7] it was 57.5%; with Tetranychus cinnabarinus [9], 87.2%; in the assay on Tetranychus cinnabarinus [10], 62.3%. Besides, the mortality at 100 g/ha in the assay on Tetranychus cinnabarinus [5] came to 94.9%; in the assay on Tetranychus cinnabarinus [6], 91.8%; with Tetranychus cinnabarinus [8], 53.1%; in the assay with Tetranychus cinnabarinus [11], 78.3%. Also, the mortality at 200 g/ha in the assay with Tetranychus cinnabarinus [12] amounted to 92.2%; with Tetranychus cinnabarinus [13], 100%; in the assay with Tetranychus cinnabarinus [14], 96.4%; with Tetranychus cinnabarinus [15], 100%. Also, the mortality at 40 µg/mL in the assay on Tetranychus cinnabarinus [1] was determined as 100%. Moreover, the mortality at 10 µg/mL with Tetranychus cinnabarinus [2] is 85%. Besides, the mortality at 600 µg/mL in the assay with Tetranychus cinnabarinus [3] stood at 100%.

`CO/C=C(/C(=O)OC)c1ccccc1COc1cc(C(F)(F)F)nc(N2CCCCC2)n1`: the mortality at 40 µg/mL in the assay with Tetranychus cinnabarinus [1] stood at 0%. Besides, the mortality at 10 µg/mL in the assay on Tetranychus cinnabarinus [2] turned out to be 0%.

`CO/C=C(/C(=O)OC)c1ccccc1COc1cc(C(F)(F)F)nc(NC2CCCCC2)n1`: the mortality at 40 µg/mL with Tetranychus cinnabarinus [1] came out at 100%. Besides, the mortality at 10 µg/mL with Tetranychus cinnabarinus [2] amounted to 70%.
